Source: patent publication US9778264B2, “Identification and enrichment of cell subpopulations” (STEM CENTRX, INC., priority 2010, dated 2017)

Assays:
[1] = tested on: colorectal NTX tumors; test: Chemoresistance of tumor cell subpopulations in mice bearing colorectal NTX tumors; assay type: in vivo; conditions: 15 mg/kg twice weekly
Method: To assess chemoresistance of tumor cell subpopulations, in vivo cohorts of mice bearing NTX colorectal tumors were randomized into two groups, such that the average tumor volume for each group was roughly equal. The groups were then treated twice weekly with either 15 mg/kg irinotecan or an equivalent volume of vehicle buffer. Tumor volumes and animal health were monitored and recorded twice weekly, a day prior to each injection.

[2] = tested on: pancreatic NTX tumors; test: Chemoresistance of tumor cell subpopulations in mice bearing pancreatic NTX tumors
Method: Mice then received twice weekly intraperitoneal dosing of 15 mg/kg irinotecan or 25 mg/kg gemcitabine, respectively, for a period of approximately 20 days before they were euthanized for tumor resection and cellular analysis.
Harvested tumors were then dissociated and constituent single cells were analyzed by flow cytometry.

SMILES	frequency of cells with TPC phenotype (CD46hi CD324+ CD66c-) among live human cells, treated vs saline-treated ([1]; flow cytometry of harvested tumors, FIGS. 24B and 24C)	CD66c phenotype of residual cells among the CD46hi CD324+ population ([1]; flow cytometry, in vehicle-treated tumors most residual cells were CD66c+, FIG. 24D)	tumor volume (growth of treated tumors) ([2]; 25 mg/kg intraperitoneal twice weekly, vs vehicle-treated tumors that continued to grow unabated, FIG. 25A)	residual tumor cell marker phenotype (CD46 expression) ([2]; 25 mg/kg twice weekly, flow cytometry of harvested tumors, vehicle vs treated, FIG. 25B)
CCc1c2c(nc3ccc(OC(=O)N4CCC(N5CCCCC5)CC4)cc13)-c1cc3c(c(=O)n1C2)COC(=O)[C@]3(O)CC [irinotecan]	more than 2.5 fold	most residual cells were CD66c^−		
Nc1ccn([C@@H]2O[C@H](CO)[C@@H](O)C2(F)F)c(=O)n1 [gemcitabine]			decreased in volume	enrichment for tumor cells expressing markers indicative of TIC
